From patent EP0162592B1, “Heterocyclic amino compounds” (GLAXO GROUP LIMITED, priority 1984, dated 1985)
Where a name gives a salt, the structure may show the parent alone.

Test system: α1-adrenoreceptor
Assay: a1-Adrenoreceptor antagonist action: prevention of phenylephrine contractions in rat isolated anococcygeus muscle (Schild analysis)
Format: cell-based
Details: agonist phenylephrine, KB = concentration shifting the agonist log10 (concentration)/response curve to the right by a factor of 2, read-out: KB value at a,-adrenoreceptors
Description: The a-adrenoreceptor-type selectivity of the compounds of general formula (I) is similarly assessed by measuring the ability to produce a parallel shift to the right of the logio (concentration)/response curve for the a,-adrenoreceptor agonist phenylephrine. The a,-adrenoreceptor-mediated responses of phenylephrine measured were contractions of the rat isolated anococcygeus muscle (Leighton, Butz & Parameter, Eur.J.Pharmac., 1979, 58 27-38).
Compounds were tested for their ability to prevent the action of α1-adrenoreceptor agonist phenylephrine in the rat isolated anococcygens muscle (Leighton, Butz & Parmeter, Eur. J. Pharmac., 1979 58 27-38). Antagonism of the effect of phenylephrine was quantified by measuring the parallel shift to the right of the phenylephrine log10 (concentration)/response curve in the presence of increasing concentrations of the test compound.
In (1) and (2) potency and competiveness of antagonism were determined by the method of Arunlakshana & Schild (Br. J. Pharmac. 1959, 14 48-58).

c1ccc2c(c1)C[C@H]1CNC[C@@H]1O2 (racemic) [Example 2, (±)-trans-1,2,3,3a,9,9a-Hexahydro[1]benzopyrano[2,3-c]pyrrole, hydrochloride]
Kb: > 10 µM
